For 15 compounds, DC50 and Dmax results are on record in patent US20240279202A1 (NURIX THERAPEUTICS, INC., priority 2021, published 2024).

The target of the assay is T1, ITK (Homo sapiens, UniProt Q08881).
T1 sequence (Q08881 1-620): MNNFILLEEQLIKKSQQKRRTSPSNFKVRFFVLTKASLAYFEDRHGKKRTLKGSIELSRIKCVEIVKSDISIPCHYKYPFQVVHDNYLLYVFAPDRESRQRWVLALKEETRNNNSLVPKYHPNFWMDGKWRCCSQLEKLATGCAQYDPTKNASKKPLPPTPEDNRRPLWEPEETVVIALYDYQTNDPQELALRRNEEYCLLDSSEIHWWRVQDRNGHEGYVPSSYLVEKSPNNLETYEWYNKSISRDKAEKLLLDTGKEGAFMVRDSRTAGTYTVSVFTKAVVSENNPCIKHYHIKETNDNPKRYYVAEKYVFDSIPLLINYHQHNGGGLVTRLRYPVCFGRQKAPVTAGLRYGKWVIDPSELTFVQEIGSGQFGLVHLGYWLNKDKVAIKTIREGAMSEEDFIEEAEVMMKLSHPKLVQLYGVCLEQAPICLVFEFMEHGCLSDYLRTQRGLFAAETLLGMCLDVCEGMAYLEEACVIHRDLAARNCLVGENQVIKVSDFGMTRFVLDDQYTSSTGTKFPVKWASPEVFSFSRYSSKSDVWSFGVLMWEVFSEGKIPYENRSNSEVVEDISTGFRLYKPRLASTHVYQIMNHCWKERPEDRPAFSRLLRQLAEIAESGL
Kind of assay: ITK degradation HiBiT assay. Also noted: expressed in transfected cells; host or cells: Molt4 (ATCC CRL-1552), monoclonal clone 1C10, engineered to carry the HiBiT tag. The settings on record: 4 hrs; for DC50: C-terminal HiBiT-tagged Molt4 cells; for Dmax: MOLT-4, C-terminal HiBiT-tagged Molt4 cells. It counts as cell-based. An outline of the steps: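 C-terminal HiBiT-tagged Molt4 cells (clone 1C10) treated 4 h at 32° C with an 11-point, 5-fold compound dilution series (0.5% DMSO). HiBiT lytic detection with LgBiT then luminescence read; % ITK remaining versus concentration fit by four-parameter variable-slope model to give DC50 and Dmax.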
A general note: HiBiT is a short tag that completes a luciferase, so light tracks the accessible tagged protein.

Where only a bound is given, the exact number is not on record here.

Regarding `Cn1c(=O)n(C2CCC(=O)NC2=O)c2cccc(N3CCC(CN4CCC5(CC4)CCN(c4ccc6cc(-c7n[nH]c8c7C[C@@H]7C(F)(F)[C@]7(C)C8)[nH]c6c4)C5=O)CC3)c21` (stereo partly drawn) [Compound 16, 3-(4-(4-((2-(2-((4aS,5aR)-5,5-difluoro-5a-methyl-1,4,4a,5,5a,6-hexahydrocyclopropa[f]indazol-3-yl)-1H-indol-6-yl)-1-oxo-2,8-diazaspiro[4.5]decan-8-yl)methyl)piperidin-1-yl)-3-methyl-2-oxo-2,3-dihydro-1H-benzo[d]imidazol-1-yl)piperidine-2,6-dione], the DC50 was determined as 0.23 nM and the Dmax amounted to 90%.
`C[C@@H](C(=O)N(C)c1ccc2cc(-c3n[nH]c4c3C[C@@H]3C(F)(F)[C@]3(C)C4)[nH]c2c1)N1CCN(CC2CCN(c3ccc(C4CCC(=O)NC4=O)cn3)CC2)CC1` (stereo partly drawn) [Compound 17, (2S)—N-(2-((4aS,5aR)-5,5-difluoro-5a-methyl-1,4,4a,5,5a,6-hexahydrocyclopropa[f]indazol-3-yl)-1H-indol-6-yl)-2-(4-((1-(5-(2,6-dioxopiperidin-3-yl)pyridin-2-yl)piperidin-4-yl)methyl)piperazin-1-yl)-N-methylpropanamide] yielded a DC50 of less than 0.001 nM.
For the compound `C[C@@H](C(=O)N(C)c1ccc2cc(-c3n[nH]c4c3C[C@@H]3C(F)(F)[C@]3(C)C4)[nH]c2c1)N1CCN(CC2CCN(c3ccc(N4CCC(=O)NC4=O)cn3)CC2)CC1` [Compound 18, (S)—N-(2-((4aS,5aR)-5,5-difluoro-5a-methyl-1,4,4a,5,5a,6-hexahydrocyclopropa[f]indazol-3-yl)-1H-indol-6-yl)-2-(4-((1-(5-(2,4-dioxotetrahydropyrimidin-1(2H)-yl)pyridin-2-yl)piperidin-4-yl)methyl)piperazin-1-yl)-N-methylpropanamide], the DC50 was 0.004 nM.
For the compound `C[C@@]12Cc3[nH]nc(-c4cc5ccc(N6CCC7(CCN(CC8CCN(c9ccc(C%10CCC(=O)NC%10=O)cn9)CC8)CC7)C6=O)cc5[nH]4)c3C[C@@H]1C2(F)F` (stereo partly drawn) [Compound 19, 3-(6-(4-((2-(2-((4aS,5aR)-5,5-difluoro-5a-methyl-1,4,4a,5,5a,6-hexahydrocyclopropa[f]indazol-3-yl)-1H-indol-6-yl)-1-oxo-2,8-diazaspiro[4.5]decan-8-yl)methyl)piperidin-1-yl)pyridin-3-yl)piperidine-2,6-dione], half-maximal degradation (DC50) was put at 0.27 nM.
Still for that read-out and setting: to `CN(C(=O)CCC1CCN(c2ccc(C3CCC(=O)NC3=O)cn2)CC1)c1ccc2cc(-c3n[nH]c4c3C[C@@H]3C(F)(F)[C@]3(C)C4)[nH]c2c1` (stereo partly drawn) [Compound 21, N-(2-((4aS,5aR)-5,5-difluoro-5a-methyl-1,4,4a,5,5a,6-hexahydrocyclopropa[f]indazol-3-yl)-1H-indol-6-yl)-3-(1-(5-(2,6-dioxopiperidin-3-yl)pyridin-2-yl)piperidin-4-yl)-N-methylpropanamide] belongs 0.01 nM.
Regarding `CC1(C)CCc2c(-c3cc4ccc(N5CCC6(CCN(CC7CCN(c8ccc(C9CCC(=O)NC9=O)cn8)CC7)CC6)C5=O)cc4[nH]3)n[nH]c2C1` (stereo not drawn) [Compound 22, 3-(6-(4-((2-(2-(6,6-dimethyl-4,5,6,7-tetrahydro-1H-indazol-3-yl)-1H-indol-6-yl)-1-oxo-2,8-diazaspiro[4.5]decan-8-yl)methyl)piperidin-1-yl)pyridin-3-yl)piperidine-2,6-dione], the DC50 was found to be 0.01 nM and the Dmax is 82%.
The matching figures for `C[C@@H](C(=O)N(C)c1ccc2cc(-c3n[nH]c4c3CCC(C)(C)C4)[nH]c2c1)N1CCN(C[C@H]2CCN(c3ccc4c(c3)C(=O)N(C3CCC(=O)NC3=O)C4=O)C2)CC1` (stereo partly drawn) [Compound 33, (2S)—N-(2-(6,6-dimethyl-4,5,6,7-tetrahydro-1H-indazol-3-yl)-1H-indol-6-yl)-2-(4-(((3R)-1-(2-(2,6-dioxopiperidin-3-yl)-1,3-dioxoisoindolin-5-yl)pyrrolidin-3-yl)methyl)piperazin-1-yl)-N-methylpropanamide]: 3.4 nM and 85%.
In the same order, the values of `C[C@@H](C(=O)N(C)c1ccc2cc(-c3n[nH]c4c3CCC(C)(C)C4)[nH]c2c1)N1CCN(C(=O)C2CN(C3CCN(c4ccc5c(c4)C(=O)N(C4CCC(=O)NC4=O)C5=O)CC3)C2)CC1` (stereo partly drawn) [Compound 34, (2S)—N-(2-(6,6-dimethyl-4,5,6,7-tetrahydro-1H-indazol-3-yl)-1H-indol-6-yl)-2-(4-(1-(1-(2-(2,6-dioxopiperidin-3-yl)-1,3-dioxoisoindolin-5-yl)piperidin-4-yl)azetidine-3-carbonyl)piperazin-1-yl)-N-methylpropanamide] are 1.8 nM and 89%.
On to `C[C@@]12Cc3[nH]nc(C(=O)Nc4cnn(CC5CN(C(=O)C6CN(C7CCN(c8ccc9c(c8)C(=O)N(C8CCC(=O)NC8=O)C9=O)CC7)C6)C5)c4)c3C[C@@H]1C2(F)F` (stereo partly drawn) [Compound 42, (4aS,5aR)-N-(1-((1-(1-(1-(2-(2,6-dioxopiperidin-3-yl)-1,3-dioxoisoindolin-5-yl)piperidin-4-yl)azetidine-3-carbonyl)azetidin-3-yl)methyl)-1H-pyrazol-4-yl)-5,5-difluoro-5a-methyl-1,4,4a,5,5a,6-hexahydrocyclopropa[f]indazole-3-carboxamide], for which half-maximal degradation (DC50) was put at 2.9 nM and the Dmax was 93%.
`C[C@@]12Cc3[nH]nc(C(=O)Nc4cnn(CC5CN(C(=O)C6CN(c7ccc8c(c7)C(=O)N(C7CCC(=O)NC7=O)C8=O)C6)C5)c4)c3C[C@@H]1C2(F)F` (stereo partly drawn) [Compound 43, (4aS,5aR)-N-(1-((1-(1-(2-(2,6-dioxopiperidin-3-yl)-1,3-dioxoisoindolin-5-yl)azetidine-3-carbonyl)azetidin-3-yl)methyl)-1H-pyrazol-4-yl)-5,5-difluoro-5a-methyl-1,4,4a,5,5a,6-hexahydrocyclopropa[f]indazole-3-carboxamide]: it took 2.9 nM to reach half-maximal degradation (DC50) and the Dmax came to 93%.
Compound `C[C@@]12Cc3[nH]nc(C(=O)Nc4cnn(CC5CN(C[C@H]6CCN(c7ccc8c(c7)C(=O)N(C7CCC(=O)NC7=O)C8=O)C6)C5)c4)c3C[C@@H]1C2(F)F` (stereo partly drawn) [Compound 44, (4aS,5aR)-N-(1-((1-(((3R)-1-(2-(2,6-dioxopiperidin-3-yl)-1,3-dioxoisoindolin-5-yl)pyrrolidin-3-yl)methyl)azetidin-3-yl)methyl)-1H-pyrazol-4-yl)-5,5-difluoro-5a-methyl-1,4,4a,5,5a,6-hexahydrocyclopropa[f]indazole-3-carboxamide] had a DC50 of 2.4 nM and a Dmax of 88%.
The matching figures for `Cn1c(=O)n([C@H]2CCC(=O)NC2=O)c2cccc(N3CCC(CN4CCN(C(=O)c5ccc6cc(-c7n[nH]c8c7CCC(C)(C)C8)[nH]c6c5)CC4)CC3)c21` [Compound 46, (S)-3-(4-(4-((4-(2-(6,6-dimethyl-4,5,6,7-tetrahydro-1H-indazol-3-yl)-1H-indole-6-carbonyl)piperazin-1-yl)methyl)piperidin-1-yl)-3-methyl-2-oxo-2,3-dihydro-1H-benzo[d]imidazol-1-yl)piperidine-2,6-dione]: 14 nM and 79%.
In turn, `CC1(C)CCc2c(-c3cc4ccc(C(=O)N5CCN(CC6CCN(c7ccc(C8CCC(=O)NC8=O)cn7)CC6)CC5)cc4[nH]3)n[nH]c2C1` (stereo not drawn) [Compound 47, 3-(6-(4-((4-(2-(6,6-dimethyl-4,5,6,7-tetrahydro-1H-indazol-3-yl)-1H-indole-6-carbonyl)piperazin-1-yl)methyl)piperidin-1-yl)pyridin-3-yl)piperidine-2,6-dione] registered a DC50 of 4.6 nM.
`Cn1c(=O)n([C@@H]2CCC(=O)NC2=O)c2cccc(N3CCC(CN4CCN(C(=O)c5ccc6cc(-c7n[nH]c8c7CCC(C)(C)C8)[nH]c6c5)CC4)CC3)c21` [Compound 48, (R)-3-(4-(4-((4-(2-(6,6-dimethyl-4,5,6,7-tetrahydro-1H-indazol-3-yl)-1H-indole-6-carbonyl)piperazin-1-yl)methyl)piperidin-1-yl)-3-methyl-2-oxo-2,3-dihydro-1H-benzo[d]imidazol-1-yl)piperidine-2,6-dione] returned a DC50 of 5.2 nM and a Dmax of 86%.
Turning to `C[C@@]12Cc3[nH]nc(C(=O)Nc4cnn(CC5CN(C(=O)C6CN(c7ccc(C8CCC(=O)NC8=O)cn7)C6)C5)c4)c3C[C@@H]1C2(F)F` (stereo partly drawn) [Compound 49, (4aS,5aR)-N-(1-((1-(1-(5-(2,6-dioxopiperidin-3-yl)pyridin-2-yl)azetidine-3-carbonyl)azetidin-3-yl)methyl)-1H-pyrazol-4-yl)-5,5-difluoro-5a-methyl-1,4,4a,5,5a,6-hexahydrocyclopropa[f]indazole-3-carboxamide], the DC50 turned out to be 3.9 nM.

The term DC50 denotes the concentration at which degradation of the target reaches its halfway point. A lower DC50 goes with degradation at low concentration. A word on the Dmax: it is the largest share of the target that was removed.
